Assay results taken from patent US20110160228A1, “DIHYDRO-ISO-CA-4 AND ANALOGUES: POTENT CYTOTOXICS, INHIBITORS OF TUBULIN POLYMERIZATION” (CENTRE NATIONAL DE LA RECHERCHE SCIENRIFIQUE (CNRS), priority 2008, published 2011).
Like-named read-outs stand apart in the source and are kept apart here. Values belong to the molecule of their own block, whether it stands above or below them.

What was measured:
tubulin = target: T1, tubulin (Sus scrofa, UniProt P02550+P02554); experiment: Inhibition of tubulin polymerization followed by turbidimetry; type: biochemical, porcine; conditions: for Inhibiting activity of tubulin polymerisation, in words: compared with CA-4 or between the enantiomers; for IC50: tubulin from porcine brain, turbidimetry at 350 nm
T1 construct: from porcine brain in which it forms 20 to 25% of soluble proteins; from tissue; host or cells: porcine brain
Description: These tests were conducted on tubulin purified using the Shelanski method (Shelanski, M. C.; Gaskin, F.; Cantor, C. R. Proc. Natl. Acad. Sci. USA, 1973, 70, 765-768) from porcine brain in which it forms 20 to 25% of soluble proteins. The purification method is based on temperature-dependent assembly-disassembly cycles. Polymerisation of tubulin was followed by turbidimetry using the Gaskin method (Gaskin, F.; Cantor, C. R.; Shelanski, M. L.; J. Bio. Mol., 1974, 89, 737) at a wavelength of 350 nm. The different samples were dissolved in DMSO and incubated 10 minutes at 37° C. then 5 minutes at 0° C.
The compound CA-4 and DMSO were used as reference.

[1] = tested on: mouse P-388 leukemia cells; conditions: cited from earlier work
[2] = tested on: mouse colon adenocarcinoma 26; conditions: cited from earlier work
[3] = cited from earlier work
HCT-15 cells = conditions: read-out: IC50, cytotoxic effect; cited from earlier work
HCT116 = experiment: In vitro cytotoxicity, cell viability with CellTiter-Blue; type: cell-based; conditions: Homo sapiens, HCT-116, 72 h
Description: (§1) The biological activity of the compounds of the invention was studied in vitro on 7 human cancer cell lines of different tissular origin (HCT116: coloreactal carcinoma; K562: chronic myeloid leukaemia; B16-F10: melanoma; U87: glioblastoma; H1299: non-small cell lung cancer and MDA-MB 231 and MDA-MB 435: breast cancer). The cells chosen for this study were incubated at 37° C. in the presence of one of the compounds added to the culture medium at different concentrations. All the experiments conducted allowed determination of the extent of toxicity of the tested compound, effect thereof on the cell cycle process and capacity thereof to induce cell death by apoptosis.
(§2) The cancer cell lines were obtained from the American Type Culture Collection (Rockville, Md., USA) and were cultured following the supplier's recommendations.
The cells H1299, U87, MDA-MB231, MDA-MB435 and B16F10 were cultured in Dulbecco Minimal Essential Medium (DMEM) containing 4.5 g/l glucose, supplemented with 10% foetal calf serum and 1% glutamine. The K562 and HCT116 cells were cultured in RPMI 1640 medium containing 10% foetal calf serum and 1% glutamine. All the cell lines were held in culture at 37° C. in a humid atmosphere containing 5% CO2. Cell viability was evaluated using the reagent CellTiter-Blue™ (Promega, Wis., USA) paying heed to the manufacturer's instructions. The cells were seeded in 96-well culture plates to the proportion of 5000 cells per well in 50 μl culture medium. […] All the compounds were tested in triplicate for each defined concentration, and each experiment was repeated 3 times. After 72 hours of incubation, 20 μl resazurin were added to each well. After 2 hours of incubation, the emitted fluorescence was measured at 590 nm after excitation at 560 nm using a fluorescence reader of Victor type (Perkin-Elmer, USA).

MDA-MB 231 = experiment: as above; type: cell-based; conditions: Homo sapiens, read-out: IC50 for different cell lines, M231
Description: as §1, §2
The cells H1299, U87, MDA-MB231, MDA-MB435 and B16F10 were cultured in Dulbecco Minimal Essential Medium (DMEM) containing 4.5 g/l glucose, supplemented with 10% foetal calf serum and 1% glutamine. […] Cell viability was evaluated using the reagent CellTiter-Blue™ (Promega, Wis., USA) paying heed to the manufacturer's instructions. […] After 2 hours of incubation, the emitted fluorescence was measured at 590 nm after excitation at 560 nm using a fluorescence reader of Victor type (Perkin-Elmer, USA).

EAhy926 = experiment: Formation of vascular tubes on Matrigel (anti-vascular activity); type: cell-based, human; conditions: treatment time of 3 hours at 0.5 μM or 1 μM
Description: The Matrigel™ is deposited in 96-well culture plates to the proportion of 70 μl/well and left to incubate at 37° C. for 45 minutes to allow polymerization thereof. […] After 3 hours of incubation at 37° C., the cells were observed and photographed using an optical microscope of TE2000 type (Nikon, France) equipped with a camera (FIG. 3).
In parallel, 15,000 EAhy926 cells in suspension in 150 μl of culture medium were seeded in each of the wells containing Matrigel™. […] The effect of the product was observed and photographed after 3 hours of incubation using an optical microscope (FIG. 4).

[4] = 72 hours of incubation, read-out: IC50 for different cell lines, HCT116

T1 sequence (P02554 whole entry): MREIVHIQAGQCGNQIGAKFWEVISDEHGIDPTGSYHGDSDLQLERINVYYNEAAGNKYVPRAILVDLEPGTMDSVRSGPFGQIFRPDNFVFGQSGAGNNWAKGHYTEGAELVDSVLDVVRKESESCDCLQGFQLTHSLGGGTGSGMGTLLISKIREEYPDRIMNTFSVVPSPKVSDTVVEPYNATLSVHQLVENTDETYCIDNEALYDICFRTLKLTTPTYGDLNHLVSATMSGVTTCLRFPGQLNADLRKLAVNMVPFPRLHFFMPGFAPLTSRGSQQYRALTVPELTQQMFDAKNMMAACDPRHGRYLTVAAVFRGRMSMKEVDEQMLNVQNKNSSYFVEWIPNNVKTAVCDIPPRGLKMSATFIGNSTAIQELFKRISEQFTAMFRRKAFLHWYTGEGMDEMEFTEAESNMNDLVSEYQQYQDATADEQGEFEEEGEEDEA
T1 sequence (P02550 whole entry): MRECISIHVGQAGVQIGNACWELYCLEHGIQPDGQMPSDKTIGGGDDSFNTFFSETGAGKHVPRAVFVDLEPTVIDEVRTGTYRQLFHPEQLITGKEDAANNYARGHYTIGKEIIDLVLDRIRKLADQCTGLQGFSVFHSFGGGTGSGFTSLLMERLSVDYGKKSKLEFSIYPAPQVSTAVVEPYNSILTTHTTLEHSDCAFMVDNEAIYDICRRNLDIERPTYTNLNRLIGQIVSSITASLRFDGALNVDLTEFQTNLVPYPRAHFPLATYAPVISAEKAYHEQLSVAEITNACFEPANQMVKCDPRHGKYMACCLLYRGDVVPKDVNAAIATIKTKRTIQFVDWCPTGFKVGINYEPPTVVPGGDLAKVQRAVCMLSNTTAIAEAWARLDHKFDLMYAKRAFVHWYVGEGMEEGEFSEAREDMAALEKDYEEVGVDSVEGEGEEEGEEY

IC50 (tubulin): 5 to 6 µM
SMILES: COc1ccc(C(C)c2cc(OC)c(OC)c(OC)c2)cc1O (single isomer, unassigned) [Compound I-1a]
Inhibiting activity of tubulin polymerisation, in words (tubulin): the same capacity to inhibit tubulin polymerisation

IC50 (tubulin): 6.7 to 8 µM
SMILES: COc1ccc(C(C)c2cc(OC)c(OC)c(OC)c2)cc1O (single isomer, unassigned) [Compound I-1b]
Inhibiting activity of tubulin polymerisation, in words (tubulin): the same capacity to inhibit tubulin polymerisation

SMILES: COc1ccc(C=Cc2cc(OC)c(OC)c(OC)c2)cc1O (single isomer, unassigned) [E isomer of CA-4]
Cytotoxic activity, times lower than the natural Z isomer [1]: approximately 60 times

SMILES: COc1ccc(/C=C\c2cc(OC)c(OC)c(OC)c2)cc1O [CA-4, combretastatin A-4]
Antitumor activity in vivo [2]: no antitumor activity is observed
Solubility in water [3]: low solubility in water
IC50 (HCT-15 cells): 0.9 nM

IC50 (tubulin): 3.2 µM
SMILES: COc1ccc(C(C)c2cc(OC)c(OC)c(OC)c2)cc1O (centres unmarked) [Compound I-1]

SMILES: COc1ccc(C(C)c2cc(OC)c(OC)c(OC)c2)cc1F (centres unmarked) [Compound I-9]
IC50 (HCT116; [4]): 85 nM
IC50 (tubulin): 6 µM

SMILES: COc1ccc(C(C)c2cc(OC)c(OC)c(OC)c2)cc1OC(=O)CN(C)C (centres unmarked) [Compound I-14]
IC50 (HCT116; 72 hours of incubation, in DMSO, read-out: IC50 for different cell lines, HCT116): 50 nM
IC50 (HCT116; 72 hours of incubation, in water, read-out: IC50 for different cell lines, HCT116): 90 nM
IC50 (MDA-MB 231; MDA-MB-231, 72 hours of incubation, in DMSO): 50 nM

SMILES: COc1ccc(C(C)c2cc(OC)c(OC)c(OC)c2)cc1OP(=O)(O)O (centres unmarked) [Compound I-16]
IC50 (HCT116; read-out: IC50 for different cell lines, HCT116, 72 hours of incubation, in DMSO): 90 nM
IC50 (HCT116; read-out: IC50 for different cell lines, HCT116, 72 hours of incubation, in water): 100 nM
Number of vascular tubes (EAhy926): major decrease in the number of vascular tubes
IC50 (MDA-MB 231; MDA-MB-231, 72 h): 50 nM

IC50 (tubulin): 11 µM
SMILES: COc1cc(OC)cc(C(C)c2ccc(OC)c(O)c2)c1 (centres unmarked) [Compound I-18]

SMILES: COc1ccc(C(CC#N)c2cc(OC)c(OC)c(OC)c2)cc1O (centres unmarked) [Compound I-19]
IC50 (HCT116; [4]): 80 nM

SMILES: COc1ccc(C(c2cc(OC)c(OC)c(OC)c2)C(F)F)cc1O (centres unmarked) [Compound I-20]
IC50 (HCT116; [4]): 30 nM

SMILES: COc1ccc(C(C)c2cc(OC)c(OC)c(OC)c2)cc1N (centres unmarked) [Compound I-21]
IC50 (HCT116; read-out: IC50 for different cell lines, HCT116, 72 hours of incubation): 60 nM

IC50 (tubulin): 11 µM
SMILES: COc1cc(OC)cc(C(C)c2ccc(OC)c(N)c2)c1 (centres unmarked) [Compound I-38]
